# Source: patent publication US20050282755A1, “Compositions having antimicrobial activity and uses thereof” (priority 2004, published 2005)
# Starred links: 1 amine or outer side, 2 acyl side, 3 side chain; linkers in the order of their positions; H or OH if unused. Non-standard residues stand in square brackets, D forms with d. Residues, ends and D or L forms follow the SMILES beside them. *: point of attachment. Ethylenediamine = C(CN[*:2])N[*:1]; Lauroyl = CCCCCCCCCCCC(=O)*; Octanoyl = CCCCCCCC(=O)*
# Experiments:
# Type in all cases: cell-based
# [1] = system: Staphylococcus aureus ATCC 29213; assay: MIC, NCCLS M7-A6 broth microdilution, cation-adjusted Mueller Hinton broth (Table 9, no superscript); settings: ATCC 29213
# In short: (§1)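 MIC, read as the lowest peptide concentration without visible growth compared with peptide-free wells, after overnight incubation at 37° C. Wells held cation-adjusted Mueller Hinton broth and a final inoculum of 5×10^5 to 1×10^6 CFU/mL from log-phase culture.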
# [2] = system: Escherichia coli ATCC 25922; assay: MIC, NCCLS M7-A6 broth microdilution (Table 9, no superscript); settings: ATCC 25922
# In short: as §1
# [3] = system: Pseudomonas aeruginosa ATCC 27853; assay: as above; settings: ATCC 27853
# In short: as §1
# Salmonella dublin (Lane) = assay: as above
# In short: as §1
# [4] = system: Staphylococcus epidermidis ATCC 12228; assay: as above; settings: ATCC 12228
# In short: as §1
# [5] = system: Propionibacterium acnes ATCC 6919; assay: MIC, agar dilution method NCCLS M11-A6, Brucella agar, anaerobic (Table 9, superscript c); settings: ATCC 6919
# In short: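 MIC taken as the lowest peptide level giving no colonies on the plate. Plates were inoculated to 1.5×10^8 CFU/milliliter, then kept anaerobically at 37° C. for 48-96 hours; method follows NCCLS M11-A6.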
# [6] = system: Candida albicans ATCC 18804; assay: MIC in yeasts, NCCLS M27-A2 broth microdilution, RPMI 1640 (Table 9, letter e); settings: ATCC 18804
# In short: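 Plates incubated 24 to 48 hours at 37° C, with yeast seeded at 0.5×10^3–2.5×10^3 CFU/milliliter final in RPMI 1640 (glutamine, phenol red indicator). MIC was read as the lowest peptide concentration showing no visible growth.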
SMILES,MIC S. aureus [1] [µg/mL],MIC E. coli [2] [µg/mL],MIC P. aeruginosa [3] [µg/mL],MIC S. dublin (Salmonella dublin (Lane)) [µg/mL],MIC S. epidermidis [4] [µg/mL],MIC P. acnes [5] [c ug/mL],MIC C. albicans [6] [e ug/mL]
CCCCCCCCCCCC(=O)N[C@H](C(=O)N[C@@H](CCCNC(=N)N)C(=O)N[C@H](C(=O)N[C@@H](C)C(=O)N[C@@H](CCCNC(=N)N)C(=O)N[C@H](C(=O)NCC(=O)N[C@@H](CCCNC(=N)N)C(=O)N[C@@H](CO)C(=O)N[C@@H](CCCNC(=N)N)C(=O)N[C@@H](Cc1c[nH]c2ccccc12)C(=O)N[C@@H](CCCNC(=N)N)C(=O)N[C@@H](CC(=O)O)C(=O)N[C@@H](Cc1c[nH]c2ccccc12)C(=O)N[C@@H](C)C(=O)N[C@@H](CCCNC(=N)N)C(=O)N[C@@H](CC(N)=O)C(=O)N[C@@H](Cc1ccccc1)C(=O)N[C@@H](CCSC)C(=O)N[C@@H](CCCNC(=N)N)C(N)=O)[C@@H](C)O)C(C)C)[C@@H](C)O [Peptide 70] (Lauroyl-TRVARTGRSRWRDWARNFMR-NH2),8,4,8,32,1,64,8
"CCCCCCCCCCCC(=O)N[C@@H](CCCNC(=N)N)C(=O)N[C@@H](CO)C(=O)N[C@@H](CCCNC(=N)N)C(=O)N[C@@H](Cc1c[nH]c2ccccc12)C(=O)N[C@@H](CCCNC(=N)N)C(=O)N[C@@H](CC(=O)O)C(=O)N[C@H](C(=O)N[C@@H](CC(C)C)C(=O)N[C@@H](CCCNC(=N)N)C(=O)N[C@@H](CC(N)=O)C(=O)N[C@@H](Cc1ccccc1)C(=O)N[C@@H](CCSC)C(=O)N[C@@H](CCCNC(=N)N)C(N)=O)C(C)C [Peptide 134, Lauryl-RSRWRDVLRNFMR-NH2] (Lauroyl-RSRWRDVLRNFMR-NH2)",4,4,32,2,1,2,1
"CCCCCCCCCCCC(=O)N[C@@H](CCCNC(=N)N)C(=O)N[C@@H](CO)C(=O)N[C@@H](CCCNC(=N)N)C(=O)N[C@@H](Cc1c[nH]c2ccccc12)C(=O)N[C@@H](CCCNC(=N)N)C(=O)N[C@@H](CC(=O)O)C(=O)N[C@H](C(=O)N[C@@H](C)C(=O)N[C@@H](CCCNC(=N)N)C(=O)N[C@@H](CC(N)=O)C(=O)N[C@@H](Cc1c[nH]c2ccccc12)C(=O)N[C@@H](CCSC)C(=O)N[C@@H](CCCNC(=N)N)C(N)=O)C(C)C [Peptide 139, Lauryl-RSRWRDVARNWMR-NH2] (Lauroyl-RSRWRDVARNWMR-NH2)",4,8,8,8,2,16,8
"CCCCCCCC(=O)NCCNC(=O)[C@H](CCCNC(=N)N)NC(=O)[C@H](CCSC)NC(=O)[C@H](Cc1ccccc1)NC(=O)[C@H](CC(N)=O)NC(=O)[C@H](CCCNC(=N)N)NC(=O)[C@H](C)NC(=O)[C@@H](NC(=O)[C@H](CC(=O)O)NC(=O)[C@H](CCCNC(=N)N)NC(=O)[C@H](Cc1c[nH]c2ccccc12)NC(=O)[C@H](CCCNC(=N)N)NC(=O)[C@H](CO)NC(=O)[C@@H](N)CCCNC(=N)N)C(C)C [Peptide 174, H2N-RSRWRDVARNFMR-Ethylamidooctanyl] (H-RSRWRDVARNFMR-{Ethylenediamine-Octanoyl}; C-terminus assumed)",8,2,4,16,1,64,32
"CCCCCCCCCCCC(=O)N[C@@H](CCCNC(=N)N)C(=O)N[C@@H](CO)C(=O)N[C@@H](CCCNC(=N)N)C(=O)N[C@@H](Cc1c[nH]c2ccccc12)C(=O)N[C@@H](CCCNC(=N)N)C(=O)N[C@@H](CC(=O)O)C(=O)N[C@H](C(=O)N[C@@H](CC(C)C)C(=O)N[C@@H](CCCNC(=N)N)C(=O)N[C@@H](CC(N)=O)C(=O)N[C@@H](Cc1ccccc1)C(=O)N[C@@H](CC(C)C)C(=O)N[C@@H](CCCNC(=N)N)C(N)=O)C(C)C [Peptide 136, Lauryl-RSRWRDVLRNFLR-NH2] (Lauroyl-RSRWRDVLRNFLR-NH2)",4,8,32,8,1,8,1
"CCCCCCCCCCCC(=O)N[C@H](CCCNC(=N)N)C(=O)N[C@H](Cc1c[nH]c2ccccc12)C(=O)N[C@H](CCCNC(=N)N)C(=O)N[C@H](CC(=O)O)C(=O)N[C@@H](C(=O)N[C@H](C)C(=O)N[C@H](CCCNC(=N)N)C(=O)N[C@H](CC(N)=O)C(=O)N[C@H](Cc1ccccc1)C(=O)N[C@H](CCSC)C(=O)N[C@H](CCCNC(=N)N)C(N)=O)C(C)C [Peptide 130, Lauryl-rwrdvarnfmr-NH2] (Lauroyl-[dR][dW][dR][dD][dV][dA][dR][dN][dF][dM][dR]-NH2)",4,8,8,16,2,8,16
"CCCCCCCCCCCC(=O)N[C@H](CCCNC(=N)N)C(=O)N[C@H](CO)C(=O)N[C@H](CCCNC(=N)N)C(=O)N[C@H](Cc1c[nH]c2ccccc12)C(=O)N[C@H](CCCNC(=N)N)C(=O)N[C@H](CC(=O)O)C(=O)N[C@@H](C(=O)N[C@H](C)C(=O)N[C@H](CCCNC(=N)N)C(=O)N[C@H](CC(N)=O)C(=O)N[C@H](Cc1ccccc1)C(=O)N[C@H](CCSC)C(=O)N[C@H](CCCNC(=N)N)C(=O)N[C@H](CS)C(N)=O)C(C)C [Peptide 247, Lauryl-rsrwrdvarnfmrc-NH2] (Lauroyl-[dR][dS][dR][dW][dR][dD][dV][dA][dR][dN][dF][dM][dR][dC]-NH2)",16,64,>64,64,32,>64,64
"CCCCCCCCCCCC(=O)N[C@@H](CCCNC(=N)N)C(=O)N[C@@H](CO)C(=O)N[C@@H](CCCNC(=N)N)C(=O)N[C@@H](Cc1c[nH]c2ccccc12)C(=O)N[C@@H](CCCNC(=N)N)C(=O)N[C@@H](CC(=O)O)C(=O)N[C@H](C(=O)N[C@@H](C)C(=O)N[C@@H](CCCNC(=N)N)C(N)=O)C(C)C [Peptide 101, Lauryl-RSRWRDVAR-NH2] (Lauroyl-RSRWRDVAR-NH2)",4,32,32,>64,2,>64,>64
